Experimental data published in patent US20170334877A1, “REVAPRAZAN HYDROCHLORIDE POLYMORPHS AND PREPARATION METHOD THEREFOR” (JIANGSU TASLY DIYI PHARMACEUTICAL CO., LTD., priority 2014, published 2017).
Where a name gives a salt, the structure may show the parent alone.

Key:
Type in all cases: physicochemical
[1] = High temperature test (60° C. incubator); conditions: for Appearance color / Loss on drying (%) / Purity (%) / Relevant substances: 60° C., hydrochloride; for Stability (conclusion in words): high temperature, no obvious changes in appearance color, loss on drying, purity, relevant substances
Experimental: Revaprazan hydrochloride crystalline form I is placed in a 60° C. incubator, and is sampled on the 5th day and 10th day for detection, and the results are shown in Table 2. Revaprazan hydrochloride crystalline form II is placed in a 60° C. incubator, and is sampled on the 5th day and 10th day for detection, and the results are shown in Table 6. Revaprazan hydrochloride polymorph III is placed in an incubator of 60° C., and is sampled on the 5th day and the 10th day for detection. Revaprazan hydrochloride crystalline form IV is placed in an incubator of 60° C., and is sampled on the 5th day and the 10th day for detection. Revaprazan hydrochloride crystal form 4 is placed in an incubator of 60° C.; and is sampled on the 5th day and the 10th day for detection, and the results are shown in Table 23.

[2] = Light illumination test (intense light, 4500±500 Lx); conditions: for Stability (conclusion in words): intense light illumination, no obvious changes in appearance color, loss on drying, purity, relevant substances; for Appearance color / Loss on drying (%) / Purity (%) / Relevant substances: light 4500±500 Lx; for Loss on drying (%) / Purity (%) / Relevant substances: hydrochloride
Text: Revaprazan hydrochloride crystalline form I is irradiated under such a condition that the light intensity is 4500±500 Lx, and is sampled on the 5th day and 10th day for detection, and the results are shown in Table 1. Revaprazan hydrochloride crystalline form II is irradiated under the condition that the light intensity is 4500±500Lx, and is sampled on the 5th day and 10th day for detection. Revaprazan hydrochloride polymorph III is irradiated under such a condition that the light intensity is 4500±500Lx, and is sampled on the 5th day and 10th day for detection. Revaprazan hydrochloride […] is irradiated under such a condition that the light intensity is 4500±500Lx, and is sampled on the 5th day and the 10th day for detection. Revaprazan hydrochloride crystalline form V is irradiated under the light intensity condition of 4500±500Lx; and is sampled on the 5th day and 10th day for detection.

[3] = Accelerated test (40±2° C., relative humidity 75±5%, 6 months, sealed polyethylene film bag); conditions: for Appearance color / Purity (%) / Relevant substances: 40±2° C., RH 75±5%; for Purity (%) / Relevant substances: hydrochloride; for Stability (conclusion in words): accelerated test, no obvious changes in appearance color, purity, relevant substances
Experimental: Revaprazan hydrochloride crystalline form I is sealed in a polyethylene film bag, is placed for 6 months under the conditions that the temperature is 40±2° C. and the relative humidity is 75±5%, and is respectively sampled at the end of the 1st Month, the 2nd Month, the 3rd Month and the 6^thMonth for detection; and the results are shown in Table 4. Revaprazan hydrochloride crystalline form II is sealed in a polyethylene film bag and is placed for 6 months under the conditions that the temperature is 40±2° C. and the relative humidity is 75±5%, and is respectively sampled at the end of the 1st Month, the 2nd Month, the 3rd Month and the 6th Month for detection; and the results are shown in Table 8. Revaprazan hydrochloride crystalline form III is sealed in a polyethylene film bag, is placed for 6 months under the conditions that the temperature is 40±2° C. and the relative humidity is 75±5%, and is sampled at the end of the 1st Month, the 2nd Month, the 3rd Month and the 6th Month for detection. Revaprazan hydrochloride crystalline form IV is sealed in a polyethylene film bag, is placed for 6 months under the conditions that the temperature is 40±2° C. and the relative humidity is 75±5%, and is sampled at the end of the 1st Month, the 2nd Month, the 3rd Month and the 6th Month for detection. Revaprazan hydrochloride crystalline form V is sealed in a polyethylene film bag and is placed for 6 months under the condition that the temperature is 40±2° C. and the relative humidity is 75±5%, and is sampled at the end of the 1st month, the 2nd month, the 3rd month and the 6th month for detection, and the results are shown in Table 20.

[4] = High humidity test (25° C., relative humidity 75±5%); conditions: for Appearance color / Purity (%) / Weight gain upon moisture absorption (%) / Relevant substances: 25° C., RH 75±5%; for Weight gain upon moisture absorption (in words): high humidity condition; for Stability (conclusion in words): high humidity, no obvious changes in appearance color, purity, relevant substances
Experimental: Revaprazan hydrochloride crystalline form I is placed in an incubator of 25° C. (relative humidity of 75±5%), and is sampled on the 5th day and 10th day for detection. Revaprazan hydrochloride crystalline form II is placed in an incubator of 25° C. (relative humidity of 75±5%), and is sampled on the 5th day and 10th day for detection. Revaprazan hydrochloride polymorph III is placed in an incubator of 25° C. (relative humidity of 75±5%), and is sampled on the 5th day and the 10th day for detection. Revaprazan hydrochloride crystalline form IV is placed in an incubator of 25° C. Revaprazan hydrochloride crystal form 4 is placed in an incubator of 25° C. (the relative humidity is 75±5%), and is sampled on the 5th day and the 10th day for detection.

Cc1nc(Nc2ccc(F)cc2)nc(N2CCc3ccccc3C2C)c1C (single isomer, unassigned) [revaprazan hydrochloride crystalline form V]
Appearance color ([1]; 5th day): White powder
Loss on drying (%) ([1]; 5th day): 0.30%
Purity (%) ([1]; 5th day): 99.95%
Relevant substances ([1]; 5th day): Undetected
Appearance color ([1]; 10th day): White powder
Loss on drying (%) ([1]; 10th day): 0.32%
Purity (%) ([1]; 10th day): 99.92%
Relevant substances ([1]; 10th day): Undetected
Appearance color ([1]; Day 0): White powder
Loss on drying (%) ([1]; Day 0): 0.29%
Purity (%) ([1]; Day 0): 99.94%
Relevant substances ([1]; Day 0): Undetected
Stability (conclusion in words) [1]: stable
Stability (conclusion in words) [2]: stable
Appearance color ([2]; 5th day): White powder
Loss on drying (%) ([2]; 5th day): 0.27%
Purity (%) ([2]; 5th day): 99.95%
Relevant substances ([2]; 5th day): Undetected
Appearance color ([2]; 10th day): White powder
Loss on drying (%) ([2]; 10th day): 0.30%
Purity (%) ([2]; 10th day): 99.95%
Relevant substances ([2]; 10th day): Undetected
Appearance color ([2]; Day 0): White powder
Loss on drying (%) ([2]; Day 0): 0.24%
Purity (%) ([2]; Day 0): 99.94%
Relevant substances ([2]; Day 0): Undetected
Appearance color ([3]; 1st month): White powder
Purity (%) ([3]; 1st month): 99.98%
Relevant substances ([3]; 1st month): Undetected
Appearance color ([3]; 2nd month): White powder
Purity (%) ([3]; 2nd month): 99.95%
Relevant substances ([3]; 2nd month): Undetected
Appearance color ([3]; 3rd month): White powder
Purity (%) ([3]; 3rd month): 99.97%
Relevant substances ([3]; 3rd month): Undetected
Appearance color ([3]; 6th month): White powder
Purity (%) ([3]; 6th month): 99.94%
Relevant substances ([3]; 6th month): Undetected
Appearance color ([3]; Month 0): White powder
Purity (%) ([3]; Month 0): 99.94%
Relevant substances ([3]; Month 0): Undetected
Stability (conclusion in words) [3]: stable
Appearance color ([4]; 5th day): White powder
Purity (%) ([4]; 5th day, hydrochloride): 99.94%
Weight gain upon moisture absorption (%) ([4]; 5th day, hydrochloride): 0.42%
Appearance color ([4]; 10th day): White powder
Purity (%) ([4]; 10th day, hydrochloride): 99.96%
Weight gain upon moisture absorption (%) ([4]; 10th day, hydrochloride): 0.66%
Appearance color ([4]; Day 0): White powder
Weight gain upon moisture absorption (%) ([4]; Day 0): 0%
Purity (%) ([4]; Day 0, hydrochloride): 99.94%
Weight gain upon moisture absorption (in words) [4]: slight weight gain
Stability (conclusion in words) [4]: stable

Cc1nc(Nc2ccc(F)cc2)nc(N2CCc3ccccc3C2C)c1C (single isomer, unassigned) [revaprazan hydrochloride crystalline form I]
Appearance color ([1]; 5th day): White powder
Loss on drying (%) ([1]; 5th day): 0.23%
Purity (%) ([1]; 5th day): 99.95%
Relevant substances ([1]; 5th day): Not detected
Appearance color ([1]; 10th day): White powder
Loss on drying (%) ([1]; 10th day): 0.24%
Purity (%) ([1]; 10th day): 99.98%
Relevant substances ([1]; 10th day): Not detected
Appearance color ([1]; Day 0): White powder
Loss on drying (%) ([1]; Day 0): 0.21%
Purity (%) ([1]; Day 0): 99.96%
Relevant substances ([1]; Day 0): Not detected
Stability (conclusion in words) [1]: stable
Stability (conclusion in words) [2]: stable
Appearance color ([2]; 5th day): White powder
Loss on drying (%) ([2]; 5th day): 0.28%
Purity (%) ([2]; 5th day): 99.92%
Relevant substances ([2]; 5th day): Not detected
Appearance color ([2]; 10th day): White powder
Loss on drying (%) ([2]; 10th day): 0.30%
Purity (%) ([2]; 10th day): 99.94%
Relevant substances ([2]; 10th day): Not detected
Appearance color ([2]; Day 0): White powder
Loss on drying (%) ([2]; Day 0): 0.27%
Purity (%) ([2]; Day 0): 99.96%
Relevant substances ([2]; Day 0): Not detected
Appearance color ([3]; 1st month): White powder
Purity (%) ([3]; 1st month): 99.97%
Relevant substances ([3]; 1st month): Not detected
Appearance color ([3]; 2nd month): White powder
Purity (%) ([3]; 2nd month): 99.92%
Relevant substances ([3]; 2nd month): Not detected
Appearance color ([3]; 3rd month): White powder
Purity (%) ([3]; 3rd month): 99.96%
Relevant substances ([3]; 3rd month): Not detected
Appearance color ([3]; 6th month): White powder
Purity (%) ([3]; 6th month): 99.95%
Relevant substances ([3]; 6th month): Not detected
Appearance color ([3]; Month 0): White powder
Purity (%) ([3]; Month 0): 99.96%
Relevant substances ([3]; Month 0): Not detected
Stability (conclusion in words) [3]: stable
Appearance color ([4]; 5th day): White powder
Purity (%) ([4]; 5th day, hydrochloride): 99.93%
Relevant substances ([4]; 5th day, hydrochloride): Not detected
Weight gain upon moisture absorption (%) ([4]; 5th day, hydrochloride): 0.42%
Appearance color ([4]; 10th day): White powder
Purity (%) ([4]; 10th day, hydrochloride): 99.95%
Relevant substances ([4]; 10th day, hydrochloride): Not detected
Weight gain upon moisture absorption (%) ([4]; 10th day, hydrochloride): 0.63%
Appearance color ([4]; Day 0): White powder
Weight gain upon moisture absorption (%) ([4]; Day 0): 0%
Purity (%) ([4]; Day 0, hydrochloride): 99.96%
Relevant substances ([4]; Day 0, hydrochloride): Not detected
Weight gain upon moisture absorption (in words) [4]: slight weight gain
Stability (conclusion in words) [4]: stable
